Source: patent US10112899B2 (ViiV HEALTHCARE UK LIMITED, priority 2014, dated 2018)

Tested on: HIV in the HTLV-1 transformed cell line MT-4
Test: organism not typed
Assay type: cell-based
Conditions: MT4, 96 h, MT-4 cells; luciferase/cell titer glo readout after 96 hours; 10 point dose response

SMILES | IC50 [nM]
Cc1c(-c2c(C)c3c(c(C)c2[C@H](OC(C)(C)C)C(=O)O)CN(C(=O)N2CCCC(F)(F)C2)C3)cc(F)c2c1CCCO2 (atropisomer, axis not shown) [Example 102, (S)-2-(tert-butoxy)-2-((R)-2-(3,3-difluoropiperidine-1-carbonyl)-6-(8-fluoro-5-methylchroman-6-yl)-4,7-dimethylisoindolin-5-yl)acetic acid] | 2
Cc1c(-c2c(C)c3c(c(C)c2[C@H](OC(C)(C)C)C(=O)O)CN(Cc2cccc(F)c2)C3)cc(F)c2c1CCCO2 (atropisomer, axis not shown; (M)) [Example 8, (2S)(M)-2-(tert-Butoxy)-2-(-6-(8-fluoro-5-methylchroman-6-yl)-2-(3-fluorobenzyl)-4,7-dimethylisoindolin-5-yl)acetic acid] | 5
Cc1c(-c2c(C)c3c(c(C)c2[C@H](OC(C)(C)C)C(=O)O)CN(C(=O)N2CCC(F)(F)C2)C3)cc(F)c2c1CCCO2 (atropisomer, axis not shown; (M)) [Example 100, (2S)-2-(tert-Butoxy)-2-(2-(3,3-difluoropyrrolidine-1-carbonyl)-6-(M)-(8-fluoro-5-methylchroman-6-yl)-4,7-dimethylisoindolin-5-yl)acetic acid] | 5
Cc1c(-c2c(C)c3c(c(C)c2[C@H](OC(C)(C)C)C(=O)O)CN(C(=O)N2CCCCC2)C3)cc(F)c2c1CCCO2 (atropisomer, axis not shown; (M)) [Example 101, (2S)-2-(tert-butoxy)-2-(6-(M)-(8-fluoro-5-methylchroman-6-yl)-4,7-dimethyl-2-(piperidine-1-carbonyl)isoindolin-5-yl)acetic acid] | 3
Cc1c(-c2c(C)c3c(c(C)c2[C@H](OC(C)(C)C)C(=O)O)CN(C(=O)c2cccc(F)c2)C3)cc(F)c2c1CCCO2 (atropisomer, axis not shown; (M)) [Example 103, (2S)-2-(tert-butoxy)-2-((M)6-(8-fluoro-5-methylchroman-6-yl)-2-(3-fluorobenzoyl)-4,7-dimethylisoindolin-5-yl)acetic acid] | 2
Cc1c(-c2c(C)c3c(c(C)c2[C@H](OC(C)(C)C)C(=O)O)CN(C(=O)CC(C)(C)C)C3)cc(F)c2c1CCCO2 (atropisomer, axis not shown; (M)) [Example 104, (S)-2-(tert-butoxy)-2-((M)-2-(3,3-dimethylbutanoyl)-6-(8-fluoro-5-methylchroman-6-yl)-4,7-dimethylisoindolin-5-yl)acetic acid] | 2
Cc1c(-c2c(C)c3c(c(C)c2[C@H](OC(C)(C)C)C(=O)O)CN(C(=O)C2CCCCC2)C3)cc(F)c2c1CCCO2 (atropisomer, axis not shown; (M)) [Example 137, (S)-2-(tert-butoxy)-2-((M)-2-(cyclohexanecarbonyl)-6-(8-fluoro-5-methylchroman-6-yl)-4,7-dimethylisoindolin-5-yl)acetic acid] | 2
Cc1c(-c2c(C)c3c(c(C)c2[C@H](OC(C)(C)C)C(=O)O)CN(C(=O)c2cccc4c2OCO4)C3)cc(F)c2c1CCCO2 (atropisomer, axis not shown; (M)) [Example 138, (S)-2-((M)-2-(benzo[d][1,3]dioxole-4-carbonyl)-6-(8-fluoro-5-methylchroman-6-yl)-4,7-dimethylisoindolin-5-yl)-2-(tert-butoxy)acetic acid] | 2
COc1cccc(C(=O)N2Cc3c(C)c(-c4cc(F)c5c(c4C)CCCO5)c([C@H](OC(C)(C)C)C(=O)O)c(C)c3C2)c1C (atropisomer, axis not shown; (M)) [Example 139, (S)-2-(tert-butoxy)-2-((M)-6-(8-fluoro-5-methylchroman-6-yl)-2-(3-methoxy-2-methylbenzoyl)-4,7-dimethylisoindolin-5-yl)acetic acid] | 37
COc1cc(F)cc(C(=O)N2Cc3c(C)c(-c4cc(F)c5c(c4C)CCCO5)c([C@H](OC(C)(C)C)C(=O)O)c(C)c3C2)c1 (atropisomer, axis not shown; (M)) [Example 140, (S)-2-(tert-butoxy)-2-((M)-2-(3-fluoro-5-methoxybenzoyl)-6-(8-fluoro-5-methylchroman-6-yl)-4,7-dimethylisoindolin-5-yl)acetic acid] | 2
Cc1c(F)cccc1C(=O)N1Cc2c(C)c(-c3cc(F)c4c(c3C)CCCO4)c([C@H](OC(C)(C)C)C(=O)O)c(C)c2C1 (atropisomer, axis not shown; (M)) [Example 141, (S)-2-(tert-butoxy)-2-((M)-2-(3-fluoro-2-methylbenzoyl)-6-(8-fluoro-5-methylchroman-6-yl)-4,7-dimethylisoindolin-5-yl)acetic acid] | 4
Cc1ncccc1C(=O)N1Cc2c(C)c(-c3cc(F)c4c(c3C)CCCO4)c([C@H](OC(C)(C)C)C(=O)O)c(C)c2C1 (atropisomer, axis not shown; (M)) [Example 142, (S)-2-(tert-butoxy)-2-((M)-6-(8-fluoro-5-methylchroman-6-yl)-4,7-dimethyl-2-(2-methylnicotinoyl)isoindolin-5-yl)acetic acid] | 31
COc1cncc(C(=O)N2Cc3c(C)c(-c4cc(F)c5c(c4C)CCCO5)c([C@H](OC(C)(C)C)C(=O)O)c(C)c3C2)c1 (atropisomer, axis not shown; (M)) [Example 143, (S)-2-(tert-butoxy)-2-((M)-6-(8-fluoro-5-methylchroman-6-yl)-2-(5-methoxynicotinoyl)-4,7-dimethylisoindolin-5-yl)acetic acid] | 4
Cc1ccc(C(=O)N2Cc3c(C)c(-c4cc(F)c5c(c4C)CCCO5)c([C@H](OC(C)(C)C)C(=O)O)c(C)c3C2)cc1F (atropisomer, axis not shown; (M)) [Example 144, (S)-2-(tert-butoxy)-2-((M)-2-(3-fluoro-4-methylbenzoyl)-6-(8-fluoro-5-methylchroman-6-yl)-4,7-dimethylisoindolin-5-yl)acetic acid] | 5
Cc1cc(C(=O)N2Cc3c(C)c(-c4cc(F)c5c(c4C)CCCO5)c([C@H](OC(C)(C)C)C(=O)O)c(C)c3C2)ccc1F (atropisomer, axis not shown; (M)) [Example 145, (S)-2-(tert-butoxy)-2-((M)-2-(4-fluoro-3-methylbenzoyl)-6-(8-fluoro-5-methylchroman-6-yl)-4,7-dimethylisoindolin-5-yl)acetic acid] | 2
Cc1ccccc1C(=O)N1Cc2c(C)c(-c3cc(F)c4c(c3C)CCCO4)c([C@H](OC(C)(C)C)C(=O)O)c(C)c2C1 (atropisomer, axis not shown; (M)) [Example 146, (S)-2-(tert-butoxy)-2-((M)-6-(8-fluoro-5-methylchroman-6-yl)-4,7-dimethyl-2-(2-methylbenzoyl)isoindolin-5-yl)acetic acid] | 3
Cc1c(-c2c(C)c3c(c(C)c2[C@H](OC(C)(C)C)C(=O)O)CN(C(=O)c2cccc(Cl)c2)C3)cc(F)c2c1CCCO2 (atropisomer, axis not shown; (M)) [Example 147, (S)-2-(tert-butoxy)-2-((M)-2-(3-chlorobenzov)-6-(8-fluoro-5-methylchroman-6-yl)-4,7-dimethylisoindolin-5-yl)acetic acid] | 13
